Test results taken from patent US20080200551A1, “Flourene Derivative” (priority 2004, published 2008).
Structures can show the parent of a compound that is named as a salt.

Experiments:
human 5-HT7 receptor = human 5-HT7 receptor (Homo sapiens, UniProt P34969); experiment: Binding test of 5-HT7 receptor; conditions: [3H]5-HT, human 5-HT7 expressing CHO cell membrane
Description: (2) Binding Test of 5-HT7 Receptor
(i) Preparation of Membrane Preparation
CHO cell was used as the gene transferring cell.
Cultured CHO cells expressing human 5-HT7 receptor were washed with PBS (−). The cells were scraped in the presence of PBS(−), and the cells were recovered by centrifugation (1,000 rpm, 10 min, 4° C.). They were homogenized using Polytron (PTA 10-TS) in the presence of 5 mM Tris-HCl (pH 7.4) buffer and centrifuged (40,000×g, 10 min, 4° C.). They were suspended using a homogenizer in the presence of 50 mM Tris-HCl (pH 7.4) buffer. They were subjected to centrifugation (40,000×g, 10 min, 4° C.), suspended in 50 mM Tris-HCl (pH 7.4) and stored at −80° C.
(ii) Receptor Binding Test
The compound was dissolved in 100% DMSO and diluted to respective concentrations. Nonspecific binding was defined as the binding quantity in the presence of 10 μM metergoline, and the result of subtracting the nonspecific binding quantity from the total binding quantity was defined as the specific binding quantity. This was mixed with 4 ml of 50 mM Tris-HCl buffer (pH 7.4) and filtered under a reduced pressure using a GF/B glass filter, and the filter was washed (4 ml×3) with the same buffer. The glass filter was soaked in 5 ml of a liquid scintillator (Aquasol-2) and the radioactivity was measured using a liquid scintillation counter.

[1] = tested on: protein leaked from the dural blood vessel caused by 5-HT; experiment: Preventive effect in guinea pig migraine model (leaked protein); assay type: in vivo; conditions: for leakage of the protein: 10 mg/kg or 30 mg/kg of oral administration
Description: (4) Preventive Effect in Guinea Pig Migraine Model
In this test system, migraine preventive effect was evaluated by measuring this leaked protein in the presence of a compound to be tested, and this was carried out by partially modifying the method described in Rachel A. Spokes and Vicki C. Middlefell, European Journal of Pharmacology (1995) 281, 75-79.
Hartley male guinea pig (250-350 g) was anesthetized by peritoneal administration (i.p.) of urethane (1.5 g/kg). By applying simple canulation to a saphena, 50 mg/kg of a fluorescent protein (FITC-BSA) was intravenously administered (i.v.) and 5 minutes thereafter, physiological saline or 1 μM of 5-HT was intravenously administered. By carrying out perfusion with physiological saline 15 minutes thereafter, blood was washed out. […] By detaching the skull, dura mater was took out and incubated at 37° C. for 16 hours in an Eppendorf tube in the presence of physiological saline of pH 11. Centrifugation was carried out, and the supernatant was dispensed into a plate. Fluorescence intensity was measured using a fluorescence plate reader (excitation wavelength 485 nm, […] 530 nm). By measuring dura mater weight, fluorescence intensity per mg dural protein was calculated.
Values of the fluorescence intensity measured at the time of the administration of each compound and at the time of no administration are shown in FIG. 1 to FIG. 4. […] The control indicates fluorescence intensity at the time of no addition of 5-HT, namely the reference value.

α1 receptor = experiment: Affinity for other receptors: α1; assay type: binding
5-HT4 receptor = 5-HT4 receptor (UniProt O70528); experiment: Affinity for other receptors: 5-HT4; assay type: binding
5-HT6 receptor = 5-HT6 receptor (UniProt P50406); experiment: Affinity for other receptors: 5-HT6; assay type: binding
5-HT2B receptor = conditions: against 5-HT1A, 5-HT1B, 5-HT2A, 5-HT2C, 5-HT3, 5-HT6, 5-HT7, α1, M1 and D2 receptors; cited from earlier work

human 5-HT7 receptor, sequence (P34969 1-432 limits assumed): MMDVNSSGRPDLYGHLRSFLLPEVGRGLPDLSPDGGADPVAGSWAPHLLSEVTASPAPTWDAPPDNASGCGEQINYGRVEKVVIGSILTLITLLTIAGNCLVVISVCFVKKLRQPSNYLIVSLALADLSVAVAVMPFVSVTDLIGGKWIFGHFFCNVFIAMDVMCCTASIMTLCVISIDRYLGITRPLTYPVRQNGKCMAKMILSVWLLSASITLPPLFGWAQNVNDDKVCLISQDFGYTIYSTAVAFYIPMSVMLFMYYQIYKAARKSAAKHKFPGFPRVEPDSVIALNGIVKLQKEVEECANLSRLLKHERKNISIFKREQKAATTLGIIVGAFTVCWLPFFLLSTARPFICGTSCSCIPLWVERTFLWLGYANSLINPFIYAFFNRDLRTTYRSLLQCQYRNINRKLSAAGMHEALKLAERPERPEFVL

Row | Compound | Ki (human 5-HT7 receptor) [nM] | leakage of the protein [1] | further results
1 | CC1(O)c2ccccc2-c2ccc(C(=O)N=C(N)N)cc21 (racemic) [Example 56, N-(diaminomethylene)-9-hydroxy-9-methyl-9H-fluorene-2-carboxamide] | 0.4 to 310 | – | –
2 | CC1(O)c2cc(C(=O)N=C(N)N)ccc2-c2c(F)cccc21 (racemic) [Example 77, N-(diaminomethylene)-5-fluoro-9-hydroxy-9-methyl-9H-fluorene-2-carboxamide] | 0.4 to 310 | – | –
3 | CC1(O)c2ccccc2-c2ccc(C(=O)N=C(N)N)cc21 (single isomer, unassigned) [Example 56a, N-(diaminomethylene)-9-hydroxy-9-methyl-9H-fluorene-2-carboxamide (optically active substance A)] | 0.4 to 310 | almost completely suppressed leakage of the protein | –
4 | NC(N)=NC(=O)c1ccc2c(c1)C1(CCCO1)c1ccccc1-2 (single isomer, unassigned) [Example 60a, N-(diaminomethylene)-4′,5′-dihydro-3′H-spiro[fluorene-9,2′-furan]-2-carboxamide (optically active substance A)] | – | almost completely suppressed leakage of the protein | –
5 | NC(N)=NC(=O)c1ccc2c(c1)C1(CCCO1)c1ccccc1-2 (single isomer, unassigned) [Example 60b, N-(diaminomethylene)-4′,5′-dihydro-3′H-spiro[fluorene-9,2′-furan]-2-carboxamide (optically active substance B)] | – | almost completely suppressed leakage of the protein | –
6 | CC1(O)c2cc(C(=O)N=C(N)N)ccc2-c2c(F)cccc21 (single isomer, unassigned) [Example 78a, N-(diaminomethylene)-5-fluoro-9-hydroxy-9-methyl-9H-fluorene-2-carboxamide (optically active substance A)] | 0.4 to 310 | – | –
7 | CC1(O)c2cc(C(=O)N=C(N)N)ccc2-c2c(F)cccc21 (single isomer, unassigned) [Example 78b, N-(diaminomethylene)-5-fluoro-9-hydroxy-9-methyl-9H-fluorene-2-carboxamide (optically active substance B)] | – | almost completely suppressed leakage of the protein | –
8 | Cl.NC(N)=NC(=O)c1ccc2c(c1)C(O)c1ccccc1-2 (stereo not shown) [Example 3, N-(diaminomethylene)-9-hydroxy-9H-fluorene-2-carboxamide hydrochloride] | – | – | IC50 (α1 receptor): ≥ 1000 nM; IC50 (5-HT4 receptor): ≥ 1000 nM; amount of the leaked protein ([1]; 3 mg/kg of intraperitoneal administration, FIG. 4): almost completely suppressed the amount of leaked protein; IC50 (5-HT6 receptor): ≥ 1000 nM
9 | CC(C)C1NC(=NC(=O)c2ccc3c(c2)C(O)c2ccccc2-3)NC1=O [Example 8, 9-hydroxy-N-[(2EZ,4S)-4-isopropyl-5-oxoimidazolin-2-ylidene-9H-fluorene-2-carboxamide hydrochloride] | 0.4 to 310 | – | –
10 | NC(N)=NC(=O)c1ccc2c(c1)C(O)c1c(Cl)cccc1-2 (stereo not shown) [Example 38, 8-chloro-N-(diaminomethylene)-9-hydroxy-9H-fluorene-2-carboxamide] | 0.4 to 310 | – | –
11 | NC(N)=NC(=O)c1ccc2c(c1)C1(SCCS1)c1ccccc1-2 [Example 59] | – | almost completely suppressed leakage of the protein | –
12 | NC(N)=NC(=O)c1ccc2c(c1)C1(CC1)c1ccccc1-2 [Example 63, N-(diaminomethylene)spiro[cyclopropane-1,9′-fluorene]-2′-carboxamide] | 0.4 to 310 | – | –
13 | COC1(C)c2ccccc2-c2ccc(C(=O)N=C(N)N)cc21 (stereo not shown) [Example 71, N-(diaminomethylene)-9-methoxy-9-methyl-9H-fluorene-2-carboxamide] | 0.4 to 310 | – | –
14 | CCC1(OC)c2ccccc2-c2ccc(C(=O)N=C(N)N)cc21 (stereo not shown) [Example 72, N-(diaminomethylene)-9-ethyl-9-methoxy-9H-fluorene-2-carboxamide] | 0.4 to 310 | – | –
15 | NC(N)=NC(=O)c1ccc2c(c1)C1(SCCS1)c1cccc(F)c1-2 [Example 85] | – | almost completely suppressed leakage of the protein | –
16 | COC1(C)c2cc(C(=O)N=C(N)N)ccc2-c2c(F)cccc21 (stereo not shown) [Example 87, N-(diaminomethylene)-5-fluoro-9-methoxy-9-methyl-9H-fluorene-2-carboxamide] | 0.4 to 310 | – | –
17 | CC(C)c1cc(-c2ccc(F)c3ccccc23)nc(N)n1 [RS-127445, 2-amino-4-(4-fluoronaphth-1-yl)-6-isopropylpyrimidine, reference compound] | – | – | 5-HT2B receptor selectivity (5-HT2B receptor): 1000 times; amount of the leaked protein ([1]; 3 mg/kg, intraperitoneal, FIG. 1): showed an effect to reduce amount of the leaked protein; amount of the leaked protein versus reference value ([1]; dose increased from 3 mg/kg to 10 mg/kg, intraperitoneal, FIG. 1): did not reduced to the reference value
18 | CC1CCN(CC[C@H]2CCCN2S(=O)(=O)c2cccc(O)c2)CC1 [SB-269970, (R)-3-(2-(2-(4-methylpiperidin-1-yl)ethyl)pyrrolidine-1-sulfonyl)phenol, reference compound] | – | – | amount of the leaked protein versus reference value ([1]; dose increased from 3 mg/kg to 30 mg/kg, intraperitoneal, FIG. 2): did not reduced the amount of leaked protein to the reference value; amount of the leaked protein ([1]; from 10 mg/kg, intraperitoneal, FIG. 2): showed the effect
